The values that follow are results of earlier work, collected in US20040185170A1, “Method for coating drug-containing particles and formulations and dosage units formed therefrom” (priority 2003, published 2004).

The conditions of the first series: normal atmospheric pressure.
Turning to `CCCCCCCCCCCCCCCCCC(=O)O` [Stearic acid], the “temperature at which it slowly volatilizes” value was 90-100 °C.

The conditions of a further series: coating material; from CRC Handbook of Chemistry and Physics, 63rd Edition.
Turning to `CCCCCCCCCC(=O)O` [Capric acid], the “ΔHvap (heat of vaporization)” value is 19,372.6 g cal mol^−1.

As to `CCCCCCCCCCCCCCCCO` [Cetyl alcohol], the “ΔHvap (heat of vaporization)” value is listed as 14,483.4 g cal mol^−1.

Regarding `CCCCCCCCCCCC(=O)O` [Lauric acid], the “ΔHvap (heat of vaporization)” value is recorded as 16,585.3 g cal mol^−1.

For the molecule `CCCCCCCCCCCC(=O)OC` [Methyl laurate], the “ΔHvap (heat of vaporization)” value is 14,853.5 g cal mol^−1.

Consider `CCCCCCCCCCCCCC(=O)OC` [Methyl myristate], for which the “ΔHvap (heat of vaporization)” value was 16,051.0 g cal mol^−1.

Take `CCCCCCCCCCCCCCCC(=O)OC` [Methyl palmitate]: the “ΔHvap (heat of vaporization)” value was 17,003.5 g cal mol^−1.

For `CCCCCCCCCCCCCC(=O)O` [Myristic acid], the “ΔHvap (heat of vaporization)” value is on record as 18,380.1 g cal mol^−1.

With `CCCCCCCC/C=C\CCCCCCCC(=O)O` [Oleic acid], the “ΔHvap (heat of vaporization)” value is listed as 20,326.7 g cal mol^−1.

Take `CCCCCCCCCCCCCCCC(=O)O` [Palmitic acid]: the “ΔHvap (heat of vaporization)” value was 17,603.6 g cal mol^−1.

Take `CCCCCCCCCCCCCCCCCC(=O)O` [Stearic acid]: the “ΔHvap (heat of vaporization)” value is 19,306.6 g cal mol^−1.

With `CCCCCCCCCCCCC(=O)O` [Tridecanoic acid], the “ΔHvap (heat of vaporization)” value was 19,214.8 g cal mol^−1.
